Measured values: publication PMC4710668, “Bioactivation of food genotoxicants 5-hydroxymethylfurfural and furfuryl alcohol by sulfotransferases from human, mouse and rat: a comparative study” (Archives of Toxicology, 2014)
Values joined by “and” are separate entries in the source; they are usually repeats but may differ in a detail not shown here. Equal entries are not always repeated.

Experiments:
Test in all cases: FFA sulfoconjugation assay (N6-MF-A formation with adenosine as scavenger)
Format in all cases: biochemical
[1] = biological target: T1, hSULT2B1b (Homo sapiens, UniProt O00204)
T1 construct: made in house; host or cells: Salmonella typhimurium TA1538 (cytosolic fraction, not purified)
T1 sequence (O00204 1-365): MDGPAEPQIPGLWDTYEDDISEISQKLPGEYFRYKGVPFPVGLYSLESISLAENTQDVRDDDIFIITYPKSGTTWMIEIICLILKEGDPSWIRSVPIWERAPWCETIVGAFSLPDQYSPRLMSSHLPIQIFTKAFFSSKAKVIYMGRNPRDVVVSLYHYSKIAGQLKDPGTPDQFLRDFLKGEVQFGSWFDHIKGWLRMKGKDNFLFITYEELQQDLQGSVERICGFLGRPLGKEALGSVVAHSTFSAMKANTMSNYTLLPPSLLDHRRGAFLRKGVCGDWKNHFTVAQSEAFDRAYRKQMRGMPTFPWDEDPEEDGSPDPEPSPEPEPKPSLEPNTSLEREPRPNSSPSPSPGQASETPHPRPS
Outline: (§1)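 Enzyme source: cytosolic preparations of TA1538 bacteria expressing single SULT forms. FFA + 10 mM adenosine, 20 min, 37 °C; stopped with cold methanol. Readout: N6-MF-A by UPLC-MS/MS, three MRM transitions, labelled internal standard; SULT-free background subtracted. Quadruplicates.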

[2] = biological target: T2, mSult2a2 (Mus musculus, UniProt P50236)
T2 construct: made in house; host or cells: Salmonella typhimurium TA1538 (cytosolic fraction, enzyme not purified)
T2 sequence (P50236 1-285): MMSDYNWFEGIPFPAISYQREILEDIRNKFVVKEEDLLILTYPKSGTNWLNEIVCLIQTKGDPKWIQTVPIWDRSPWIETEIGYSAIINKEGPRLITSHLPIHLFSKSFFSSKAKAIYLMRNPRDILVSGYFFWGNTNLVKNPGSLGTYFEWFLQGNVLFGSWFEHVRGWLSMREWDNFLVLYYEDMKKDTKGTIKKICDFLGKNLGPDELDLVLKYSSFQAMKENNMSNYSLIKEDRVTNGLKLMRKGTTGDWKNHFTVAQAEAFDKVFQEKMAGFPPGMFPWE
Outline: as §1

[3] = biological target: T3, rSult1a1 (Rattus norvegicus, UniProt P17988); details: 1 mM FFA
T3 construct: made in house; host or cells: Salmonella typhimurium TA1538 (cytosolic fraction, enzyme not purified)
Outline: as §1

[4] = biological target: T4, mSult2b1b (Mus musculus, UniProt O35400)
T4 construct: made in house; host or cells: Salmonella typhimurium TA1538 (cytosolic fraction, enzyme not purified)
T4 sequence (O35400 1-338): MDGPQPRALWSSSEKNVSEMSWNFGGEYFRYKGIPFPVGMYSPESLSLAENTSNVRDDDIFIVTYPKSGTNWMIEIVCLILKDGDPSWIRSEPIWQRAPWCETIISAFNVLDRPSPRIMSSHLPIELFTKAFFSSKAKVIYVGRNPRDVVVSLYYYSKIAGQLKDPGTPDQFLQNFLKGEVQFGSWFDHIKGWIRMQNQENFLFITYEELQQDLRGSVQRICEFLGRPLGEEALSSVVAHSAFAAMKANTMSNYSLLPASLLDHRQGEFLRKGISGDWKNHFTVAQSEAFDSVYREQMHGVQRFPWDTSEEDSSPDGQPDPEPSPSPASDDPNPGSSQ
Outline: as §1

T3 sequence (P17988 whole entry): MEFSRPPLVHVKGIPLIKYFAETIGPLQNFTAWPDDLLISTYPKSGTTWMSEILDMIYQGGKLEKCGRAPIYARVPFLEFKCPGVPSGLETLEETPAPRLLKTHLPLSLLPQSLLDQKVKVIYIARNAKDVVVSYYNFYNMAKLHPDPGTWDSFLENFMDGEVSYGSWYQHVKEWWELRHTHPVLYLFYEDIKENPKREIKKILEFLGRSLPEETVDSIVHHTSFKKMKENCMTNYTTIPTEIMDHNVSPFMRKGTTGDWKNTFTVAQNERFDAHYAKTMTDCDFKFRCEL

SMILES: OCc1ccco1 [FFA, furfuryl alcohol]
- Rate of N6-MF-A formation ([1]; 0.1 mM FFA): <18 fmol N ^6-MF-A/mg/min
- Rate of N6-MF-A formation ([1]; 1 mM FFA): <20 fmol N ^6-MF-A/mg/min
- Rate of N6-MF-A formation ([1]; 10 mM FFA): <44 fmol N ^6-MF-A/mg/min
- Rate of N6-MF-A formation ([2]; 0.1 mM FFA): <18 fmol N ^6-MF-A/mg/min
- Rate of N6-MF-A formation ([2]; 1 mM FFA): <20 fmol N ^6-MF-A/mg/min
- Rate of N6-MF-A formation ([2]; 10 mM FFA): 216 ± 3 fmol N ^6-MF-A/mg/min
- Rate of N6-MF-A formation [3]: 31.8 ± 0.8 fmol N ^6-MF-A/mg/min
- Rate of N6-MF-A formation (corr.) ([3]; corrected by actual SULT concentration in the cytosolic preparation): 24,400 fmol N ^6-MF-A/mg/min and 24,400 ± 600 fmol N ^6-MF-A/mg/min
- ratio of N6-MF-A formation, rSult1a1 vs rSult1b1 ([3]; corrected rates): ~71 fold
- ratio of N6-MF-A formation, rSult1a1 vs rSult1c1 ([3]; corrected rates): about 6 fold
- Rate of N6-MF-A formation ([4]; 0.1 mM FFA): <18 fmol N ^6-MF-A/mg/min
- Rate of N6-MF-A formation ([4]; 1 mM FFA): <20 fmol N ^6-MF-A/mg/min
- Rate of N6-MF-A formation ([4]; 10 mM FFA): <44 fmol N ^6-MF-A/mg/min
